From ChEMBL document CHEMBL1129482, “Synthesis and anti-herpes virus activity of 2'-deoxy-4'-thiopyrimidine nucleosides” (J Med Chem, 1996)
pIC50: −log10 of the molar value.

How the values were obtained:
Human alphaherpesvirus 1 = assay: Inhibitory activity against herpes simplex virus type 1 (HSV-1) strain SC16 in Vero cells.; assay type: functional, organism-based; details: Human alphaherpesvirus 1, Vero
Human betaherpesvirus 5 = assay: Inhibitory activity against human cytomegalovirus (HCMV) strain AD169 in MRC-5 cells.; assay type: functional, organism-based; details: Human betaherpesvirus 5, MRC5
Vero [1] = assay: Inhibitory dose required to reduce the growth of vero cells by 50% over a 4 day period.; assay type: functional, Chlorocebus sabaeus
[2] = Inhibitory activity against herpes simplex virus type 2 (HSV 2) strain 186 in Vero cells.; assay type: functional, cell-based
Human alphaherpesvirus 3 = assay: Inhibitory activity against varicella zoster virus (VZV) strain G31 in MRC-5 cells.; assay type: functional, organism-based; details: Human alphaherpesvirus 3, MRC5
Vero [3] = assay: Inhibitory activity against herpes simplex virus type 2 (HSV 2) strain 186 was determined in Vero cells; Range is 2-5 uM; assay type: functional, cell-based; details: Chlorocebus sabaeus
Vero [4] = assay: Inhibitory activity against herpes simplex virus type 1 (HSV 1) strain SC16 was determined in Vero cells; Range is 0.17-0.5 uM; assay type: functional, cell-based; details: Chlorocebus sabaeus
Vero [5] = assay: Inhibitory dose required to reduce the growth of Vero cells by 50% over a 4 day period; assay type: functional, Chlorocebus sabaeus
MRC5 = assay: Inhibitory activity against varicella zoster virus (VZV) strain G31 was determined in MRC-5 cells; Toxicity at 40 uM; assay type: functional, cell-based, Homo sapiens

| Compound | pIC50 (Human alphaherpesvirus 1) | pIC50 (Human betaherpesvirus 5) | CCID50 (Vero [1]) [µM] | pIC50 [2] | pIC50 (Human alphaherpesvirus 3) | pIC50 (Vero [3]) | pIC50 (Vero [4]) | CCID50 (Vero [5]) [µM] | IC50 (MRC5) |
| --- | --- | --- | --- | --- | --- | --- | --- | --- | --- |
| O=c1[nH]c(=O)n([C@H]2CC(O)C(CO)S2)cc1Br (stereo partly specified) | 5.28 | 6.36 | >500 | < 4.00 | < 4.40 |  |  |  |  |
| CCCc1cn([C@H]2CC(O)C(CO)S2)c(=O)[nH]c1=O (stereo partly specified) | 5.17 | < 4.00 | >100 | < 5.00 | 5.52 |  |  |  |  |
| COc1cn(C2CC(O)C(CO)S2)c(=O)[nH]c1=O (stereo unspecified) | < 4.00 | < 4.00 |  | < 4.00 | < 4.00 |  |  |  |  |
| O=c1[nH]c(=O)n([C@H]2CC(O)C(CO)S2)cc1/C=C/Cl (stereo partly specified) | 6.30 | < 4.00 | >500 | < 4.00 | < 5.00 |  |  |  |  |
| O=c1[nH]c(=O)n([C@H]2C[C@H](O)[C@@H](CO)O2)cc1/C=C/Br [BRIVUDINE] | 5.85 | < 4.00 | >250 | 5.00 | > 6.00 |  |  |  |  |
| O=c1[nH]c(=O)n([C@H]2CC(O)C(CO)S2)cc1[N+](=O)[O-] (stereo partly specified) | 4.74 |  | 476 | 4.57 | 4.89 |  |  |  |  |
| CCC(C)c1cn(C2CC(O)C(CO)S2)c(=O)[nH]c1=O (stereo unspecified) |  | < 4.00 | >500 | < 4.00 |  |  |  |  |  |
| COCCc1cn([C@H]2CC(O)C(CO)S2)c(=O)[nH]c1=O (stereo partly specified) |  | < 4.00 |  | < 4.00 | < 5.00 |  |  |  |  |
| CC(O)c1cn(C2CC(O)C(CO)S2)c(=O)[nH]c1=O (stereo unspecified) | 4.40 | < 4.00 | >500 | < 4.00 | 4.92 |  |  |  |  |
| N#Cc1cn([C@H]2CC(O)C(CO)S2)c(=O)[nH]c1=O (stereo partly specified) | < 4.00 | < 4.00 | >500 | < 4.00 | < 4.00 |  |  |  |  |
| O=c1[nH]c(=O)n([C@@H]2CC(O)C(CO)S2)cc1[N+](=O)[O-] (stereo partly specified) | < 4.00 |  |  | < 4.00 | < 4.00 |  |  |  |  |
| CCc1cn([C@H]2CC(O)C(CO)S2)c(=O)[nH]c1=O (stereo partly specified) |  | 3.86 | >100 |  | 6.00 | 5.70 | 6.77 |  |  |
| CC(C)(C)c1cn([C@H]2CC(O)C(CO)S2)c(=O)[nH]c1=O (stereo partly specified) |  | < 4.00 | 475 | < 4.00 |  |  |  |  |  |
| Nc1nc2c(ncn2COCCO)c(=O)[nH]1 [ACYCLOVIR] | 5.74 | < 4.07 | >500 | 5.77 |  |  |  |  |  |
| O=c1[nH]c(=O)n([C@H]2CC(O)C(CO)S2)cc1CCF (stereo partly specified) | 6.15 | < 4.00 | >500 | < 4.00 | 6.92 |  |  |  |  |
| C=C(C)c1cn([C@H]2CC(O)C(CO)S2)c(=O)[nH]c1=O (stereo partly specified) | 5.47 | < 4.00 |  | < 4.00 | > 4.40 |  |  | >500 |  |
| O=c1[nH]c(=O)n(C2CC(O)C(CO)S2)cc1F (stereo unspecified) | < 5.00 | < 4.00 | 92 | < 5.00 | < 4.00 |  |  |  |  |
| O=c1[nH]c(=O)n([C@H]2CC(O)C(CO)S2)cc1C=C(F)F (stereo partly specified) |  | < 4.00 | >500 | < 4.00 | < 5.00 |  |  |  |  |
| O=c1[nH]c(=O)n([C@H]2CC(O)C(CO)S2)cc1C1CC1 (stereo partly specified) | 5.80 | < 4.00 | >500 | < 4.00 | 6.30 |  |  |  |  |
| CC(C)c1cn([C@H]2CC(O)C(CO)S2)c(=O)[nH]c1=O (stereo partly specified) | 5.66 | < 4.00 | >500 | < 4.00 | 5.39 |  |  |  |  |

| Compound | pIC50 (Human alphaherpesvirus 1) | pIC50 (Human betaherpesvirus 5) | CCID50 (Vero [1]) [µM] | pIC50 [2] | pIC50 (Human alphaherpesvirus 3) | pIC50 (Vero [3]) | pIC50 (Vero [4]) | CCID50 (Vero [5]) [µM] | IC50 (MRC5) |
| --- | --- | --- | --- | --- | --- | --- | --- | --- | --- |
| CC(=O)c1cn(C2CC(O)C(CO)S2)c(=O)[nH]c1=O (stereo unspecified) | < 5.00 | < 4.00 | 351 | < 5.00 | < 5.00 |  |  |  |  |
| O=C1NC(=O)N(C2CC(O)C(CO)S2)C2CCCC12 (stereo unspecified) |  | < 4.00 | >500 | < 4.00 | < 4.40 |  |  |  |  |
| O=c1[nH]c(=O)n([C@H]2CC(O)C(CO)S2)cc1C(F)(F)F (stereo partly specified) | > 5.80 | < 5.00 | 139 | 4.82 |  |  |  |  |  |
| O=c1[nH]c(=O)n([C@H]2CC(O)C(CO)S2)cc1C12CC3CC(CC(C3)C1)C2 (stereo partly specified) | < 4.00 | < 4.00 | >125 | < 4.00 |  |  |  |  | Toxic |
| COC(C)c1cn(C2CC(O)C(CO)S2)c(=O)[nH]c1=O (stereo unspecified) | < 4.00 | < 4.00 | >500 | < 4.00 | < 4.40 |  |  |  |  |
| C#Cc1cn([C@H]2CC(O)C(CO)S2)c(=O)[nH]c1=O (stereo partly specified) | 5.18 | 5.03 | 33 | < 5.00 | 5.26 |  |  |  |  |
| C#CCc1cn([C@H]2CC(O)C(CO)S2)c(=O)[nH]c1=O (stereo partly specified) | < 4.00 | 4.00 | 492 | < 4.00 | 5.85 |  |  |  |  |
| Nc1nc(O)c2ncn(CCC(CO)CO)c2n1 [PENCICLOVIR] | 5.41 | < 4.00 |  | 4.89 | 4.10 |  |  |  |  |
| O=c1[nH]c(=O)n([C@H]2CC(O)C(CO)S2)cc1C(F)=C(Cl)Cl (stereo partly specified) | < 4.30 | < 4.00 | >500 |  | < 4.00 |  |  |  |  |
| O=c1[nH]c(=O)n([C@H]2CC(O)C(CO)S2)cc1Cl (stereo partly specified) | < 4.00 | 6.70 | 59 | < 4.00 | < 4.40 |  |  |  |  |
| CSCc1cn(C2CC(O)C(CO)S2)c(=O)[nH]c1=O (stereo unspecified) |  | < 4.00 | >500 | < 4.00 |  |  |  |  |  |
| COCc1cn(C2CC(O)C(CO)S2)c(=O)[nH]c1=O (stereo unspecified) | < 5.00 | < 4.00 |  | < 5.00 | < 5.00 |  |  |  |  |
| O=c1[nH]c(=O)n([C@H]2CC(O)C(CO)S2)cc1I (stereo partly specified) | 6.10 | 5.40 | >100 | 5.00 | 5.46 |  |  |  |  |
| CCc1cn([C@@H]2CC(O)C(CO)S2)c(=O)[nH]c1=O (stereo partly specified) |  | < 4.00 | >100 | < 4.00 | < 4.00 |  |  |  |  |
| O=c1[nH]c(=O)n(C2CC(O)C(CO)S2)cc1CCCl (stereo unspecified) | 6.82 |  | >200 | < 4.00 | 6.52 |  |  |  |  |
| O=c1[nH]c(=O)n([C@H]2CC(O)C(CO)S2)cc1CC(F)(F)F (stereo partly specified) |  | < 4.00 | >500 | < 4.00 | < 4.40 |  |  |  |  |
| O=c1[nH]c(=O)n([C@@H]2CC(O)C(CO)S2)cc1C(F)(F)F (stereo partly specified) |  | < 4.00 | >500 | < 4.00 |  |  |  |  |  |
| C/C=C/c1cn([C@H]2CC(O)C(CO)S2)c(=O)[nH]c1=O (stereo partly specified) | < 5.70 | < 4.00 | >100 | < 4.70 | 6.34 |  |  |  |  |
| C=Cc1cn([C@H]2CC(O)C(CO)S2)c(=O)[nH]c1=O (stereo partly specified) | 5.85 | 4.03 | >500 | < 4.00 | 5.96 |  |  |  |  |
